Experimental data taken from US20070203233A1, “NOVEL 2-(alpha-N-PENTANONYL)BENZOATES, THEIR PREPARATION AND USE” (priority 2004, published 2007).
Marks after values point to notes of the source that are not given here.

Experiments:
[1] = test system: model rats of middle cerebral artery thrombosis (MCAT); assay: Effects on neural symptoms of MCAT rats; assay type: in vivo, SD rats; set-up: key to Scores 6 hours / Scores 24 hours: 0/1 per test, summed (max 4); higher = more severe behavioral disorder; conditions: for Scores 6 hours: behavioral score 6 h after operation (full mark 4); for Scores 24 hours: behavioral score 24 h after operation (full mark 4); for % inhibition at hour 24: vs. model group
Method: (1) Grouping and administration: […] Preventive administration was conducted by gavage one time per day for 3 days prior to the model being established. The model was established on day 4, and a dosage of one day was administered by gavage immediately after the model was established. Another dosage of one day was again administered by gavage 12 hours after the model was established. Equivalent amount of the vehicle was administered to the control group. […] Description of technique and early neuropathological consequences following middle cerebral artery occlusion. J Cereb Blood Flow Metab, 1981, 1: 53), and fixed in lateral decubitus position. A bowtype incision of 1.5 cm long was made at the midpoint between canthus and exterior auditory canal. Temporalis was broken and incised to expose temporal bone. […] The filter paper was removed after 30 min when the vascular became black. The localized tissue was washed with physiological brine, and sutured layer by layer. Then rats were placed back into the cages. By following the modified method of Bederson et al. […] (2) The animals were placed onto a smooth ground, and the resistance of contralateral shoulder to push was examined. “0” was recorded if the resistance of both shoulders were equal and strong; and “1” was recorded if the resistance of contralateral shoulder to push was decreased. […] (4) The tail of the rat was lifted 30 cm high away from the ground, and “1” was recorded if the animals ceaselessly circled contralaterally. “4” was full mark in accordance with the above-mentioned standard. The higher the score was, more severe the behavioral disorder of the animal was. 4. Results: The behavioral scores in each group were compared by student t test.

[2] = test system: model rats of middle cerebral artery thrombosis (MCAT); assay: Effects on cerebral infarct area of MCAT rats; assay type: in vivo, SD rats; conditions: for Cerebral infarct tissue weight/total brain weight (%): 24 h after operation, TTC staining; for Inhibition (%): cerebral infarct vs. model group
[3] = viscous liquid; cited from earlier work
[4] = The Stability to Light; assay type: physicochemical; conditions: 10 days, HPLC
[5] = Thermal Stability; assay type: physicochemical; conditions: 60° C., 10 days, HPLC
[6] = test system: thrombus of artery-vein bypass in rats; assay: Effects on thrombosis of artery-vein bypass in rats; assay type: in vivo, SD rats; conditions: for Dry-weight of thrombus / Wet-weight of thrombus: once per day for 3 days; for Inhibition (%) of dry-weight of thrombus / Inhibition (%) of wet-weight of thrombus: vs. thrombus model group
Method: Testing methods are described in Chen-Qi, “Methodology for Pharmacological Research of Chinese Medicine”,People's Medical Publishing House, Sep. 1993, 1st ed., page 510. […] Equivalent amount of the vehicle was administered to the thrombus model group. The operation was conducted immediately after the final administration. […] The operation was conducted to separate the right common carotid artery and the left external jugular vein. A pre-weighed suture # 0 of 8 cm long was placed into the middle part of a polyethylene tube of 10 cm long. Then the tube was filled with normal saline, and connected at both ends to the cannula of 3 cm long filled with normal saline. One end of the tube was inserted into the left external jugular vein, and another end was inserted into the right common carotid artery. The blood flowed from the right common carotid artery to the polyethylene tube, and then flow back to the left external jugular vein, so as to construct a bypass circulation. […] The wet-weight of the thrombus was obtained by subtracting the weight of the suture and the paper from this total wet weight. […] The thrombus was taken out and weighed to obtain a total dry weight. The dry weight of the thrombus was obtained by subtracting the weight of the suture and the paper form this total dry weight. The results in each group were compared by student's t test. […] Testing Results

[7] = in vivo; conditions: both, ICR, mouse, po

Row | SMILES | Scores 6 hours ([1]; 50 mg/kg by gavage) | Scores 24 hours ([1]; 50 mg/kg by gavage) | Scores 6 hours ([1]; 100 mg/kg by gavage) | Scores 24 hours ([1]; 100 mg/kg by gavage) | Scores 6 hours ([1]; 200 mg/kg by gavage) | Scores 24 hours ([1]; 200 mg/kg by gavage) | Cerebral infarct tissue weight/total brain weight (%) ([2]; 50 mg/kg by gavage) | Inhibition (%) ([2]; 50 mg/kg by gavage) | Cerebral infarct tissue weight/total brain weight (%) ([2]; 100 mg/kg by gavage) | Inhibition (%) ([2]; 100 mg/kg by gavage) | Cerebral infarct tissue weight/total brain weight (%) ([2]; 200 mg/kg by gavage) | Inhibition (%) ([2]; 200 mg/kg by gavage) | also measured
1 | CCCCC1OC(=O)c2ccccc21 (racemic) [DL-3-n-butylphthalide] | 3.36 ± 0.81 | 3.09 ± 0.54 | 3.36 ± 0.50 | 3.09 ± 0.70 | 3.36 ± 0.67 | 3.00 ± 0.89 | 5.66 ± 2.81% | 23.62% | 5.81 ± 1.49 % | 26.83% | 5.52 ± 1.78 % | 27.46% | % inhibition at hour 24 ([1]; 50 mg/kg by gavage): 15.11%; % inhibition at hour 24 ([1]; 100 mg/kg by gavage): 17.16%; % inhibition at hour 24 ([1]; 200 mg/kg by gavage): 19.57%; solubility in water (in words) [3]: insoluble in water
2 | CCCCC(=O)c1ccccc1C(=O)O [Calcium 2-(α-n-pentanonyl)benzoate, calcium 2-(α-n-pentanonyl)benzoate] | 3.18 ± 0.60 | 2.73 ± 0.65**^,s | 3.40 ± 0.52 | 2.90 ± 0.57 | 3.27 ± 0.79 | 2.45 ± 0.82 | 5.01 ± 1.79 % | 32.39% | 5.23 ± 2.04 % | 34.13% | 4.65 ± 2.13 % | 38.90% | decomposed product detected, stability to light (in words) [4]: no decomposed product; decomposed product detected, thermal stability (in words) [5]: no decomposed product; cerebral infarct as compared with the model group (in words) ([2]; 50 mg/kg, P<0.05): significantly reduced; Dry-weight of thrombus ([6]; 50 mg/kg by gavage): 40.2 ± 18.0 mg; Wet-weight of thrombus ([6]; 50 mg/kg by gavage): 199.8 ± 30.4 mg; Inhibition (%) of dry-weight of thrombus ([6]; 50 mg/kg by gavage): 21.64%; Inhibition (%) of wet-weight of thrombus ([6]; 50 mg/kg by gavage): 22.92%; Dry-weight of thrombus ([6]; 100 mg/kg by gavage): 34.2 ± 13.1 mg; Wet-weight of thrombus ([6]; 100 mg/kg by gavage): 189.8 ± 52.3 mg; Inhibition (%) of dry-weight of thrombus ([6]; 100 mg/kg by gavage): 33.33%; Inhibition (%) of wet-weight of thrombus ([6]; 100 mg/kg by gavage): 26.77%; Dry-weight of thrombus ([6]; 200 mg/kg by gavage): 30.4 ± 13.9 mg; Wet-weight of thrombus ([6]; 200 mg/kg by gavage): 163.2 ± 64.4 mg; Inhibition (%) of dry-weight of thrombus ([6]; 200 mg/kg by gavage): 40.74%; Inhibition (%) of wet-weight of thrombus ([6]; 200 mg/kg by gavage): 37.04%; LD50 at 7 days [7]: 2680 mg/kg
